Legend:
[1] = target: protein phosphatase 2A; details: protein phosphatase 2A inhibitor; cited from earlier work
[2] = system: PTP; details: PTP inhibitor; cited from earlier work
[3] = system: C. elegans strain DR1564: daf-2(m41)
Description: All screening was done at 20 μM compound concentration in quadruplicates, except 2000 compounds of Diverset in triplicates. Confirmation was done at 4 concentrations. Questionable dose responses were repeated, if necessary at lower concentrations and/or 2 fold dilution steps. All worms that bypassed dauer stage, L4s and adults, were counted under a Leica MZ12 dissection scope and together referred to as number of adults per well. […] Data were transferred to Excel files and average and variance of the 8 controls of each plate calculated and plotted.
The number of wells was plotted against the number of adults per well and a negative binomial distribution fitted by maximum likelihood. […]
Then the number of adults per well where the cumulative negative binomial distribution was closest to 99% was determined and referred to as 1% cut-off. […]
The plates were then screened through quickly to find wells with a high number adults, which were counted and if found to reach the cut-off value the position on the lid was circled and the exact value written in the circle. […] Finally the transparent lids of the 4 replicate plates were stacked on top of each other and by looking through them it was determined whether 2 or more lids were circled in any position. […]

## CC1(C(=O)O)C2CCC(O2)C1(C)C(=O)O (stereo not drawn) [Cantharidic acid]
[1]
  IC50: 0.053 µM

## CN(N=O)c1cc(O)ccc1O [Dephostatin]
[2]
  IC50: 7.7 µM

## COC[C@H]1OC(=O)c2coc3c2[C@@]1(C)C1=C(C3=O)[C@@H]2CCC(=O)[C@@]2(C)C[C@H]1OC(C)=O [Wortmannin]
[3]
  active in the assay: active

Source: patent US20050229260A1, “Compound screens relating to insulin deficiency or insulin resistance” (DevGen NV, priority 2000, published 2005)
